Data on two compounds can be found in patent US12251382B2, “Substituted amino-pyrimidine compound for use in a method for treatment and prevention of multiple sclerosis” (Merck Patent GmbH, priority 2018, dated 2025).

Molecules are shown by their SMILES. Where a name gives a salt, the structure may show the parent alone.

Series [1] concerns human patients suffering from relapsing multiple sclerosis (RMS). Description: Phase II RMS study: HRQoL SF-36 Physical Component Summary score. The series is classed as in vivo. The settings on record: open-label reference arm, 240 mg twice daily. The method, then:
Analysis of Primary Endpoint
(§1) Primary and secondary efficacy endpoints were analysed based on the modified intention-to-treat (mITT) analysis set, consisting of all randomized patients with at least one available baseline and one post-baseline MRI assessment. […] For each endpoint, rate ratio (RR; null-hypothesis RR=1.0) adjusted for baseline disease activity was reported together with associated 95% CI and p-value. The T2 lesion endpoint was analysed similarly. Dose-response relationships between evobrutinib treatment dose and primary and key secondary endpoints were assessed for linear and monotonic trend. The analysis of CFB in cube root of volume of T2 lesions at Week 24 was based on a mixed-effect model for repeated measures, with fixed effects for treatment, week of visit, and treatment-by-week interaction, random effect for subject, and adjustment for baseline cube root of lesion volume. CFB in SF-36 score at Week 24 was analysed similarly. Descriptive statistics were used to further describe the study outcomes.

For series [2] the test system is unchanged. Kind of series: Phase II RMS study: brain MRI (Gd+ T1 lesions, T2 lesions). The series is classed as in vivo. Also noted: key to Gd+ T1 lesion rate (subject level), Median / Gd+ T1 Lesion rate, adjusted (negative binomial model): number of Gd+ T1 lesions per scan. The method, then:
(§2) The assessing Investigator and central MRI reader were treatment blinded.
The protocol specified that subjects self-administered the IMP at a set time each day (every 12 hours ±2 hours). Subjects were to take their daily dose more than 1 hour prior to a meal or snack and more than 2 hours after a meal or snack. Clear fluids were allowed at any time. On trial visit days, the IMP was to be administered during the trial visit after the scheduled trial visit procedures (other than post-treatment PK/PD sampling) are completed.
Stratification occurred by region (USA or Western Europe, Eastern Europe and BTKO capable, Eastern Europe and not BTKO capable, and RoW). For the first 7 days, Tecfidera was administered orally at 120 mg twice daily. Following this and for the duration of treatment, Tecfidera was administered orally at 240 mg twice daily.
The protocol specified that MRI scans were to be performed at Screening, at 4-week intervals from Week 12 to 24, and at the End of Treatment Visit at Week 48 (including for subjects receiving Tecfidera who choose to enter the OLE Period). […] If a subject discontinued the study more than 4 weeks after his or her most recent MRI, the protocol specified that an MRI may be obtained at the 4-week Safety Follow-up Visit. The Screening MRI scan was to be acquired before randomization and dosing to allow for the readouts to be read by the central MRI reader (approximately 7 days).
Gadolinium was used to enhance T1-weighted lesions and to optimize clarity and accuracy of reporting. As gadolinium is excreted renally, subjects with acute renal insufficiency (eGFR <45 mL/min/1.73 m^2) will be excluded from the trial.
The protocol specified that brain MRI scans were performed according to a standardized imaging protocol before and after the administration of single-dose gadolinium. Images were assessed and reported by an independent, blinded, centralized MRI reading service, provided by NeuroRx Research. The assessment was performed in the absence of clinical information. Further details, including the scans required and the optimal MRI workflow, were provided in a separate Imaging Manual provided to each trial site by NeuroRx Research. All MRI images were reviewed and reported locally by a radiologist for safety. The local report was to contain only non-MS pathology and was to be provided to the Treating Investigator.
The primary endpoint was the total number of gadolinium-enhancing T1 lesions at Week 12, 16, 20, and 24. The primary analysis was a comparison of each evobrutinib dose arm versus placebo based on this endpoint, with a supportive test for dose-response. Secondary Endpoints
Other covariates were permitted to be considered. […] Descriptive statistics for the total number of Gd+ T1 lesions, at Week 12, 16, 20, and 24, are provided for each treatment group.
Estimation of mean per-scan number of Gd+ T1 lesions at Weeks 12, 16, 20, and 24, for each treatment group, was based on the NB model. In the analysis of each secondary endpoint, other covariates were permitted to be included in the model.
as §1, with “Descriptive statistics were used to further describe the study outcomes.” left out

Series [3] has the same test system. Description: Phase II RMS study: qualified relapse assessment (ARR, relapse-free status). The series is classed as in vivo. The following applies: open-label reference arm, 240 mg twice daily, Week 24. The method, then:
as §2
Subjects were assessed for MS relapse at visits beginning at Week 4. Relapse was also assessed at any Unscheduled Visit for Neurological Worsening and Relapse Assessment. For subjects in the OLE Period, MS relapse was assessed at all visits. A qualifying relapse was defined as new, worsening or recurrent neurological symptoms attributed to MS that last for at least 24 hours without fever or infection, or adverse reaction to prescribed medication, preceded by a stable or improving neurological status of at least 30 days. The relapse must have been accompanied by new clinical signs (i.e., changes in the neurological examination or an increase in EDSS score).
The protocol specified that all cases of potential relapse were to be objectively confirmed by the Investigator regardless of whether they were identified during a scheduled or unscheduled visit. Any assessments needed to confirm the relapse were to be performed, and details of the relapse were to be documented within the relevant section(s) of the eCRF.
Additional Secondary Endpoints
Analysis of secondary endpoints was based on the mITT analysis set. […] Descriptive statistics for ARR were calculated for each treatment group as the total number of qualified relapses divided by the number of subject-years of observation.
as §1

Series [4] can be described thus: Phase II RMS study: safety (adverse events, laboratory) over 24 weeks. The series is classed as in vivo. The following applies: 240 mg twice daily, 24 weeks. The method, then: as §2
Safety profile of the IMP was assessed through the recording, reporting and analysis of baseline medical conditions; AEs; physical examination findings including vital signs, ECGs, and laboratory tests (including Ig and subclass concentration and B, NK, and T cell counts). Comprehensive assessment of any apparent toxicity experienced by each subject was performed from the time of giving informed consent and throughout the trial. The Investigator was to report any AEs, whether observed by the Investigator or reported by the subject.
Adverse Event: An AE was any untoward medical occurrence in a subject or clinical investigation subject administered a pharmaceutical product, regardless of causal relationship with this treatment. An AE could therefore be any unfavorable and unintended sign (including an abnormal laboratory finding), symptom, or disease temporally associated with the use of a medicinal product, whether or not considered related to the medicinal product.
The Investigator was required to grade the severity or toxicity of each AE. Investigators referenced the National Cancer Institute-Common Terminology Criteria for AEs (NCI-CTCAE), Version 4.03 (publication date: 14 Jun. 2010) a descriptive terminology provided in the Manual of Procedures that can be used for AE reporting.
A general grading (severity/intensity; hereafter referred to as severity) scale was provided at the beginning of the above referenced document, and specific event grades were also provided. Only if a particular AE's severity was not specifically graded by the guidance document, then the Investigator was to use the general NCI-CTCAE definitions of Grade 1 through Grade 5 following his or her best medical judgment. The 5 general grades are: • Grade 1 or Mild • Grade 2 or Moderate • Grade 3 or Severe • Grade 4 or Life-threatening • Grade 5 or Death.
Serious Adverse Events: An SAE is any untoward medical occurrence that at any dose: • Results in death. • Is life-threatening. (Note: The term “life-threatening” refers to an event in which the subject is at risk of death at the time of the event, not an event that hypothetically might have caused death if it was more severe) • Requires inpatient hospitalization or prolongs an existing hospitalization, except in the case of hospitalizations due to protocol-defined relapses. • Results in persistent or significant disability or incapacity. • Is a congenital anomaly or birth defect. • Is otherwise considered to be medically important.

For series [5] the following is noted: therapeutic or supratherapeutic doses, thorough QT studies; cited from earlier work.
Setting [6] is: open-label reference arm, 240 mg twice daily.

With `COC(=O)/C=C/C(=O)OC` [Dimethyl fumarate, dimethyl fumarate, reference compound], in series [1], the “Change in SF-36 PCS score from baseline to week 24, Mean ± SD” value is listed as 1.6 ± 5.17 and the “Change in SF-36 PCS score from baseline to week 24, Median” value is reported as 1.7. In addition, the “Change in SF-36 PCS score from baseline to week 24, Mean ± SD” value in series [1] (listed as dimethyl fumarate) is listed as 1.6±5.17. The “Total Gd+ T1 lesions over 4 scans in an outlier patient” value in series [2] (one patient of the open-label reference arm) turned out to be 230. Moreover, in series [2] (setting [6]), the “Change in volume of T2 lesions from baseline to week 24, Mean ± SD” value amounted to 0.46 ± 2.97 cc; the “Change in volume of T2 lesions from baseline to week 24, Median” value is given as −0.02 cc; the “Gd+ T1 lesion rate (subject level), Median” value stood at 0.0; the “Gd+ T1 lesion rate (subject level; count per scan, weeks 12-24), Mean ± SD” value is 1.45 ± 7.29. In addition, in series [2] (setting [6]), the “Total Number of New or Enlarging T2 Lesions at Week 24, Mean ± SD” value is 5.35 ± 16.67; the “Total number of Gd+ T1 lesions at Weeks 12, 16, 20, 24, Mean ± SD” value turned out to be 5.78 ± 29.17; the “Total number of Gd+ T1 lesions at Weeks 12, 16, 20, 24, Median (min-max)” value is listed as 0 (0-213). For the same compound, the “New or enlarging T2 lesion rate (subject level), Mean ± SD” value in series [2] (open-label reference arm, 240 mg twice daily, Weeks 12-24) is 1.54 ± 5.46. For the same compound, the “Total number of Gd+ T1 lesions at Weeks 12, 16, 20, 24, Mean ± SD” value in series [2] (open-label reference arm, 240 mg twice daily, listed as dimethyl fumarate) is 5.78 (±29.17). Also, in series [3], the “Proportion of patients who qualified as relapse-free” value is 89% and the “Unadjusted ARR” value amounted to 0.20. In series [4], the “TEAE: Infections and infestations” value is reported as 7 (13.0) n (%); the “TEAE: Urinary tract infection” value was 0 (0.0) n (%).
`CC#CC(=O)N1CCC[C@H]1c1nc(-c2ccc(C(=O)Nc3ccccn3)cc2)c2c(N)nccn12` [acalabrutinib]: in series [5], the “Prolongation of the QTc interval” value is reported as “Neither ibrutinib nor acalabrutinib have been associated with clinically relevant prolongation of the QTc interval”.
